Results on 2 compounds are retold here after publication PMC3365014, “Specific Recognition of p53 Tetramers by Peptides Derived from p53 Interacting Proteins” (PLoS ONE, 2012).

The assay deals with FlAsH-labeled full-length p53 (M133L/V203A/N239Y/N268D). Kind of assay: Fluorescence-monitored analytical ultracentrifugation sedimentation velocity. It is filed as binding. The settings on record: 25–50 nM FlAsH-p53, peptide up to 500 µM or solubility limit; 25 mM NaPi pH 7.2, 150 mM NaCl, 10% glycerol, 10°C.

Entries after “also recorded” stand apart in the source; their conditions may differ.

Protocol: We tested whether the peptides that bind tetrameric p53CTD can bind specifically to tetrameric p53 in a mixture of the different oligomers. Testing the specificity of the peptides for tetrameric p53 must be performed at very low p53 concentrations (<100 nM), where a significant population of dimers is present in addition to the tetramers [21]. Therefore, we used fluorescence-monitored analytical ultracentrifugation sedimentation velocity experiments using FlAsH-labeled full-length p53. The fluorescent label on p53 enables working at nanomolar protein concentrations and allows for specific detection of the protein without interference from any other molecule in the solution.
We incubated FlAsH-p53 with different concentrations of the peptides and measured the sedimentation profiles of the protein (Figure 7). […] Sedimentation coefficients of∼2 S correspond to dimers and∼3 S correspond to tetramers. Presumably, sedimentation coefficients of up to∼4 S correspond to p53 tetramers bound to one or more peptide molecules. […] Most likely higher sedimentation coefficients (>4 S) correspond to higher-order oligomers of p53.
C-terminally FlAsH-tagged (CCPGCC) p53 was expressed and reacted with FlAsH-EDT2 as described [24]. This introduces a specific fluorescent label at the carboxy terminus of p53. The protein was dialyzed against 25 mM NaPi pH = 7.2, 150 mM NaCl, 14.2 mM β-mercaptoethanol, 0.2 mg/ml BSA and 10% glycerol. […] The measurements were performed in a Beckman-Coulter Optima XL-I ultracentrifuge with an Aviv fluorescence detection system [29] in SedVel60K-FDS fluorescence velocity cells. The samples were equilibrated in the cells at 10°C for 3 hours before centrifugation. The AUC run was performed as described [23], [48] and analyzed using SedFit software [56].

For `CSCC[C@H](NC(=O)CNC(=O)[C@@H]1CCCN1C(=O)[C@H](CCC(N)=O)NC(=O)[C@H](CC(C)C)NC(=O)[C@@H](N)[C@@H](C)O)C(=O)N[C@@H](CCCNC(=N)N)C(=O)N[C@H](C(=O)N[C@@H](CCCNC(=N)N)C(=O)N[C@@H](CCSC)C(=O)N[C@@H](CC(C)C)C(=O)N[C@@H](CC(=O)O)C(=O)N[C@@H](CC(=O)O)C(=O)N[C@@H](Cc1ccc(O)cc1)C(=O)N[C@@H](CCC(=O)O)C(N)=O)C(C)C` [Cul7(376–390)], the AUC effect entry was “a specific shift of the tetramer peak was observed but at much higher concentrations, and no high-order oligomers were formed; also recorded: causes a shift of the tetramer peak at very high peptide concentrations; also recorded: Tetramer shift”. `CC[C@H](C)[C@H](NC(=O)[C@H](CCC(=O)O)NC(=O)[C@H](CCC(=O)O)NC(=O)[C@H](Cc1ccc(O)cc1)NC(=O)[C@H](CC(=O)O)NC(=O)[C@H](CC(=O)O)NC(=O)[C@H](CC(C)C)NC(=O)[C@H](CCSC)NC(=O)[C@H](CCCNC(=N)N)NC(=O)[C@@H](NC(=O)[C@H](CCCNC(=N)N)NC(=O)[C@H](CCSC)NC(=O)CN)C(C)C)C(=O)N[C@@H](CO)C(=O)N[C@@H](C)C(N)=O` [PARC(386–400)]: the AUC effect result is “a specific shift of the tetramer peak was observed but at much higher concentrations, and no high-order oligomers were formed; also recorded: Tetramer shift”.
